From patent US20200199527A1, “METHODS OF MATURATION OF HUMAN SPERMATOGONIUM” (B.G. Negev Technologies & Applications Ltd., at Ben-Gurion …, priority 2017, published 2020)

How the values were obtained:
[1] = test system: Isolated testicular cells (from azoospermic adult patients); assay: Effect of TNFα on development of spermatogenic markers in vitro in methylcellulose culture system (MCS); format: cell-based, human; set-up: key to VASA (pre-meiotic marker) staining / PLZF (pre-meiotic marker) staining / SALL4 (pre-meiotic marker) staining / CREM (meiotic marker) staining / BOULE (meiotic marker) staining / ACROSIN (post-meiotic marker) staining: “+” indicates positive staining for the indicated marker; “−” indicates negative staining for the indicated marker
Description: After an overnight in sperm wash media containing 30% human serum albumin at room temperature (RT), TESE specimen were re-searched for sperm and then collected into the same media and transferred to the present inventor' lab, while TEFNA specimens were transferred to Modified Human Tubal Fluid (HTF) media containing 15% serum protein substitutes and transferred to the present inventor' lab after two days at RT. For cell isolation, biopsies were cut into small pieces of ˜2 mm, and subjected to collagenase type V (2 mg/ml) (Sigma, St. Louis, Mo., USA), DNAse (8 μg/ml) (Sigma) and hyelorunidase (2 mg/ml) (Sigma) in a total volume of 4 ml for 20 minutes in a 32° C. water bath shaker. Cells were precipitated by centrifugation (300×g, 10 minutes) and suspended with 4 ml of Tryple Select (Gibco, Denmark) for 10 minutes in a shaking water bath at 32° C. Cell suspension was centrifuged (300×g, 10 minutes) and the precipitated cells were suspended in 200 μl Roswell Park Memorial Institute (RPMI) (Biological Industries, Beit Haemek, Israel) and counted. Cells were cultured (2×10^4 cells/well/500 μl) in Minimum Essential Medi (MEM) (Biological Industries) which contained sodium bicarbonate (Gibco, UK), 7.5%, L-glutamine (Biological industries) 200 mM, non-essential amino acids (Gibco, UK) 1%, penicillin/streptomycin (Biological Industries) and gentamicin (Biological Industries) (10 mg/ml), and incubated for 2 nights in 24 well plates at 37° C., 5% CO2. The nonadherent cells were collected and cultured (2×10^4 cells/well/500 μl) in methylcellulose (R&D, Minneapolis, USA) (42%) [as a three-dimension (3D) culture system], which contained 33% StemPro-34 medium (Gibco, USA) enriched with: StemPro supplement (2.6%) (Gibco), insulin (25 μg/ml) (Gibco), transferrin (100 μg/ml) (Gibco), putrescin (60 μg/ml) (Gibco), sodium selenite (30 nM) (Gibco), D-glucose (6 mg/ml) (Sigma), pyruvic acid (30 μg/ml) (Sigma), BSA (Millpore, Illkirch, France) (5 mg/ml), L-glutamine (2 mM) (Biological Industries), 2-mercaptoethanol (0.5 μM) (Gibco), MEM vitamin solution (10 μl/ml) (Gibco, UK), MEM non-essential amino acid solution (10 μl/ml) (Gibco, UK), ascorbic acid (100 μM) (Sigma, China), d-biotin (10 μg/ml) (Sigma), 1% KSR (Gibco, UK), 0.5% Pen/Strep (Biological Industries), human rEGF (20 ng/ml) (Biolegend, CA, USA), human rGDNF (10 ng/ml) (Biolegend), human rLIF (10 ng/ml) (Biolegend) and human r-bFGF (10 ng/ml) (Biolegend). Cells were cultured for 1-16 weeks. Every 1-2 weeks (according to the growth and morphology of the cells), we added 50 μl/well of fresh concentrated (×10) enriched StemPro-34 medium to the cell cultures.
Isolated cells were fixed in cold methanol for 20 minutes. The immunostaining process was similar to that mentioned above for testicular tissue immunostaining after the stage of antigen retrieval. Following the removal of the blocking buffer, the first antibodies were added: Polyclonal rabbit anti-mouse SALL4 (Abcam, Cambridge, UK; 1:400), Polyclonal rabbit anti-human VASA (Santa Cruz 1:100), Polyclonal rabbit anti-human CD9 (Santa Cruz; 1:10), Polyclonal goat anti-human OCT4 (Santa Cruz; 1:50), Polyclonal rabbit anti-human α-6-INTEGRIN (Santa Cruz; 1:100), Polyclonal rabbit anti-human GFR-α □(Santa Cruz; 1:50), monoclonal mouse anti-human PLZF (Santa Cruz; 1:100), Polyclonal rabbit anti-human c-KIT (Santa Cruz; 1:50), Polyclonal rabbit anti-human BOULE (Santa Cruz; 1:25), Polyclonal rabbit anti-mouse CREM-1 (Santa Cruz; 1:30), Polyclonal goat anti-human LDH (Santa Cruz; 1:50), Polyclonal goat anti-mouse PROTAMINE (Santa Cruz; 1:20), Polyclonal rabbit anti-human ACROSIN (Santa Cruz; 1:10), monoclonal mouse anti-human Ki67 (Dianova GmbH, Germany; 1:200), monoclonal rabbit anti-human Ki67 (Cell marque; 1:200). After overnight incubation at 4° C., the slides were washed and treated as mentioned above for testicular tissue immunostaining. […]

[2] = test system: cells isolated from seminiferous tubules of ICR immature (7-day-old) mice; assay: Effect of hormones and retinoic acid on development of mouse spermatogenesis in vitro in methylcellulose culture system (qPCR of markers); format: cell-based; conditions: 10^−8 M, 10^−7 M or 10^−6 M added after two weeks of culture, examined after total four weeks, normal immature mice
Description: Cells were enzymatically isolated from seminiferous tubules of ICR mice (which were developed by the Institute of Cancer Research, also called CD-1) immature mice (7-day-old mice).
Briefly, cells were cultured (2×10^5 cells/well/500 μl) in MEM medium which contained sodium bicarbonate 7.5%, L-glutamine 200 mM, non-essential amino acids 1%, penicillin/streptomycin and gentamicin 10 mg/ml, and were incubated over 2 nights in 24 wells plate at 37° C., 5% CO2. The nonadherent cells were collected and cultured ([…] cells/well/500 μl) in methylcellulose (42%; R&D, Minneapolis, USA) [as a three-dimension (3D) culture system], which contained the StemPro-34 medium (Gibco, USA) enriched with: 10% KSR (knockout serum replacement, Gibco, USA) and the following growth factors: Glial cell-derived neurotrophic factor (GDNF; 10 ng/ml; Biolegend), Leukemia inhibitory factor (LIF; 10 ng/ml; Biolegend), epidermal growth factors (EGF; 20 ng/ml; Biolegend, CA, USA), bFGF (basic fibroblast growth factor) (10 ng/ml; Biolegend).
Cells were cultured for 4 weeks. Every 1-2 weeks (according to the growth and morphology of the cells) the present inventor added 50 μl/well of fresh concentrated (×10) enriched StemPro-34 medium to the cell cultures. […]

[3] = TNFα 20 pg/ml, after culture (14.5 Ws) in MCS, patient 1, immunofluorescence staining

Compound	differentiation of the pre-meiotic cells to meiotic cells that express CREM ([1]; TNFα 20 pg/ml, patient #1, compared to CT (did not induce CREM))	growth of premeiotic cells VASA and PLZF, meiotic cells (Boule) and postmeiotic cells (acrosin positive cells) ([1]; TNFα 20 pg/ml, patient #1, versus control (CT))	ACROSIN (post-meiotic marker) staining [1, 3]	BOULE (meiotic marker) staining [1, 3]	CREM (meiotic marker) staining [1, 3]	PLZF (pre-meiotic marker) staining [1, 3]	SALL4 (pre-meiotic marker) staining [1, 3]	VASA (pre-meiotic marker) staining [1, 3]	development of colonies in MCS ([1]; in the presence of TNFα)	expression of the meiotic/post-meiotic marker ACROSIN [2]
TNFα	induced the differentiation	maintained/induced growth	+	+	+	+	−	+	colonies were developed	
C[C@]12CC[C@H]3[C@@H](CCC4=CC(=O)CC[C@@]43C)[C@@H]1CC[C@@H]2O [testosterone]										increased
